Source: patent US20210047290A1, “SPIRO COMPOUND AS INDOLEAMINE-2,3-DIOXYGENASE INHIBITOR” (SHANGHAI INSTITUTE OF ORGANIC CHEMISTRY, CHINESE ACADEMY OF …, priority 2018, published 2021)

What was measured:
[1] = biological target: T1, IDO enzyme (Homo sapiens, UniProt P14902); experiment: IDO enzyme inhibitory activity test; format: biochemical; details: recombinant IDO, D-Trp substrate, reading at 321 nm for 40 min
T1 construct: made in house; host or cells: E. coli BL21 (pET28a-IDO plasmid)
Experimental: (1) Induced Expression and Purification Method of IDO Protein
Firstly, DO gene was amplified with PCR, and the amplified PCR product was recycled. Digestion (2 h under 37° C.), gel running and recycling were carried out on the pET28a plasmid (purchased from Shanghai Baomanbio Co., Ltd.) and IDO gel with two restriction enzymes (EcoR I and Xho I). T4 ligase was connected with the product overnight, added into DH5α competence, placed on the ice for 30 min and subjected to thermal shock at 42° C. for 90 s.
BL21 which contained pET28a-IDO plasmid was shaken vigorously at 37° C. till OD600 was 0.6-0.8, added into hemin (final concentration: 40 μM) and 0.5 mM IPTG (isopropyl-3-D-IPTG) and induced under 16° C. for 20 h; after induction, thallus were collected centrifugally at 4° C. and 6,000 rpm, washed with 50 mM PBS (pH 7.5) and collected again centrifugally.
The collected thallus were suspended again with buffer solution (50 mM PBS pH 7.5). An appropriate amount of 100×PMSF was added. The thallus were disrupted with cell disruption instrument (1,400 bar) at 4° C. for three times. The split bacteria were centrifuged at 18,000×g for 45 min. The sediment was removed but supernatant was retained and filtered with a 0.45 μm film at 4° C.; the nickel column was balanced with lysis buffer (50 mM PBS pH7.5) by 3 column volumes.
The supernatant was loaded on the nickel column and washed with wash solution (50 mM PBS pH7.5, 50 mM imidazole) by 4 column volume. Finally, protein was eluted with eluant (50 mM PBS pH7.5, 250 mM imidazole); dialyzed for 6 h with dialysis solution (50 mM PBS pH7.5), concentrated, sub-packaged, quickly frozen with liquid nitrogen and stored at −80° C. for backup.
(2) Test Method for IDO Enzyme Inhibitory Activity
Firstly, the compound was diluted by triple gradient. 1 μL of each concentration was added into a 96-well plate; 50 μL of IDO Enzyme solution PBS (pH 7.5; final concentration: 50 mM) was added: 25 μL of substrate 1 (methylene blue, final concentration: […]; catalase, final concentration: 0.2 μg/L; PBS (pH 7.5; final concentration: 50 mM) mixture and 25 μL of substrate 2 (D-Trp, final concentration: 1.5 mM; sodium ascorbate, final concentration: 20 mM; PBS (pH 7.5), final concentration 50 mM) mixture were added for starting the reaction. Finally, OOD321 nm reading was carried out for 40 min.

[2] = biological target: T2, IDO in Hela cells (Homo sapiens, UniProt P14902); experiment: Test of cellular activity (kynurenine formation in interferon γ stimulated Hela cells); format: cell-based; details: head prints IPS cells, method: Hela cells, 48 h incubation, read at 480 nm
T2 construct: endogenous in cells; host or cells: HeLa cells stimulated with human interferon γ
T2 sequence (P14902 whole entry): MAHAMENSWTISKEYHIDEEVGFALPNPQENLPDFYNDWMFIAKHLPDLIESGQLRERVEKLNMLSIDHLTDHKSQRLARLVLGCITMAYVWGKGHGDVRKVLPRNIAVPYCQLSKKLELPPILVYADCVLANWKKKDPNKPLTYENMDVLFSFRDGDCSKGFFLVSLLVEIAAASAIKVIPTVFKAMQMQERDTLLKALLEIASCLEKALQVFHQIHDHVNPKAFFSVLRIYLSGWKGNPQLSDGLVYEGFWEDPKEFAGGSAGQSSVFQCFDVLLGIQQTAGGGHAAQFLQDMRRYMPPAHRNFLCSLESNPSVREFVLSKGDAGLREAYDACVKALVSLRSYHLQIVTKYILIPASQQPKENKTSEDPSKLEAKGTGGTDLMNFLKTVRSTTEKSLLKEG
Experimental: (3) Test Method of Cellular Activity
Hela cells (80 μL) was inoculated on a 96-well plate (5×10^3 for each well) to grow overnight. After the compound was diluted the next day, 1 μL of diluent and 100 μL of culture medium which contains human interferon γ (final concentration: 50 ng/m) were added into the 96-well plate to make the final volume reach […]. After incubating for 48 h, 80 μL of supernate was transferred from each well to a new […]. 10 μL 6.1N trichloroacetic acid was added into each well for mixing and incubation at 50° C. for 30 min, and […] N formyl-kynurenin into kynurenine. The reaction mixture was centrifuged at 2,500 rpm for 10 min, 70 μL of supernatant of each well was transferred to a new 96-well plate and mixed with 100 μL of 2% (w/v) dimethylaminobenzaldehyde acetic acid solution. After placing for 5-10 min, measurement was carried out at 480 nm with the SPECTRAmax i13 reader.

T1 sequence (P14902 whole entry): as above

| IC50 [1] [nM] | IC50 [2] [nM] | SMILES |
| --- | --- | --- |
| 500 |  | O=C(Nc1ccc(Cl)cc1)C1CC12CCC(c1ccnc3ccccc13)CC2 (racemic) [Example 2B, (±)-(cis/trans)-N-(4-chlorophenyl)-6-(quinolin-4-yl)spiro[2.5]octane-1-carboxamide] |
|  | > 3 | O=C(Nc1ccc(Cl)cc1)C1CCC12CCC(c1ccnc3ccc(F)cc13)CC2 (racemic) [Example 10B, (±) N-(4-chlorophenyl)-7-(6-fluoroquinolin-4-yl)spiro[3.5]nonane-1-carboxamide] |
|  | 0.69 | O=C(Nc1ccc(F)cc1)C1CC2(CCC(c3ccnc4ccc(F)cc34)CC2)C1 (single isomer, unassigned) [Example 25, N-(4-fluorophenyl)-7-(6-fluoroquinolin-4-yl)spiro[3.5]nonane-2-carboxamide] |
|  | 0.79 | O=C(Nc1ccc(Br)cc1)C1CC2(CCC(c3ccnc4ccc(F)cc34)CC2)C1 (single isomer, unassigned) [Example 26, N-(4-bromophenyl)-7-(6-fluoroquinoline-4-yl)spiro[3.5]nonane-2-carboxamide] |
|  | > 10 | O=C(Nc1ccccn1)C1CC2(CCC(c3ccnc4ccc(F)cc34)CC2)C1 (single isomer, unassigned) [Example 27] |
|  | > 10 | Cn1ccc(-c2ccc(NC(=O)C3CC4(CCC(c5ccnc6ccc(F)cc56)CC4)C3)cc2F)n1 (single isomer, unassigned) [Example 28, N-(3-fluoro-4-(1-methyl-1H-pyrazol-3-yl)phenyl)-7-(6-fluoroquinolin-4-yl)spiro[3.5]nonane-2-carboxamide] |
|  | > 10 | O=C(Nc1ccccc1Cl)C1CC2(CCC(c3ccnc4ccc(F)cc34)CC2)C1 (single isomer, unassigned) [Example 29, N-(2-chlorophenyl)-7-(6-fluoroquinolin-4-yl)spiro[3.5]nonane-2-carboxamide] |
|  | 2.53 | O=C(Nc1ccc(Cl)cc1F)C1CC2(CCC(c3ccnc4ccc(F)cc34)CC2)C1 (single isomer, unassigned) [Example 30, N-(4-chloro-2-fluorophenyl)-7-(6-fluoroquinoline-4-yl)spiro[3.5]nonane-2-carboxamide] |
|  | 1.97 | O=C(Nc1cccc(F)c1)C1CC2(CCC(c3ccnc4ccc(F)cc34)CC2)C1 (single isomer, unassigned) [Example 31, N-(3-fluorophenyl)-7-(6-fluoroquinoline-4-yl)spiro[3.5]nonane-2-carboxamide] |
|  | > 10 | O=C(Nc1cccc(Br)c1)C1CC2(CCC(c3ccnc4ccc(F)cc34)CC2)C1 (single isomer, unassigned) [Example 32, N-(3-bromophenyl)-7-(6-fluoroquinoline-4-yl)spiro[3.5]nonane-2-carboxamide] |
|  | > 10 | O=C(Nc1cccnc1)C1CC2(CCC(c3ccnc4ccc(F)cc34)CC2)C1 (single isomer, unassigned) [Example 33, 7-(6-fluoroquinoline-4-yl)-N-(pyridine-3-yl)spiro[3.5]nonane-2-carboxamide] |
|  | 1.36 | O=C(Nc1ccc(Cl)c(F)c1)C1CC2(CCC(c3ccnc4ccc(F)cc34)CC2)C1 (single isomer, unassigned) [Example 34, N-(3-fluoro-4-chlorophenyl)-7-(6-fluoroquinoline-4-yl)spiro[3.5]nonane-2-carboxamide] |
|  | 6.23 | O=C(Nc1ccc(C(F)(F)F)cc1)C1CC2(CCC(c3ccnc4ccc(F)cc34)CC2)C1 (single isomer, unassigned) [Example 35, 7-(6-fluoroquinolin-4-yl)-N-(4-(trifluoromethyl)phenyl)spiro[3.5]nonane-2-carboxamide] |
|  | 8.32 | O=C(Nc1cccc(Cl)c1)C1CC2(CCC(c3ccnc4ccc(F)cc34)CC2)C1 (single isomer, unassigned) [Example 36, N-(3-chlorophenyl)-7-(6-fluoroquinoline-4-yl)spiro[3.5]nonane-2-carboxamide] |
|  | > 10 | O=C(Nc1ccc(Br)c(F)c1)C1CC2(CCC(c3ccnc4ccc(F)cc34)CC2)C1 (single isomer, unassigned) [Example 37, N-(3-fluoro-4-bromophenyl)-7-(6-fluoroquinoline-4-yl)spiro[3.5]nonane-2-carboxamide] |
|  | > 10 | O=C(Nc1ccc(F)c(Cl)c1)C1CC2(CCC(c3ccnc4ccc(F)cc34)CC2)C1 (single isomer, unassigned) [Example 38, N-(3-chloro-4-fluorophenyl)-7-(6-fluoroquinoline-4-yl)spiro[3.5]nonane-2-carboxamide] |
|  | 3.05 | O=C(Nc1ccc(F)c(F)c1)C1CC2(CCC(c3ccnc4ccc(F)cc34)CC2)C1 (single isomer, unassigned) [Example 40, N-(3,4-difluorophenyl)-7-(6-fluoroquinoline-4-yl)spiro[3.5]nonane-2-carboxamide] |
|  | > 10 | O=C(Nc1ccccc1C(F)(F)F)C1CC2(CCC(c3ccnc4ccc(F)cc34)CC2)C1 (single isomer, unassigned) [Example 41, 7-(6-fluoroquinoline-4-yl)-N-(2-(trifluoromethyl)phenyl)spiro[3.5]nonane-2-carboxamide] |
|  | 9.5 | O=C(Nc1ccc(Cl)cn1)C1CC2(CCC(c3ccnc4ccc(F)cc34)CC2)C1 (single isomer, unassigned) [Example 42, N-(5-chloropyridine-2-yl)-7-(6-fluoroquinoline-4-yl)spiro[3.5]nonane-2-carboxamide] |
|  | 3.07 | O=C(Nc1ccc(-c2ccccc2)cc1)C1CC2(CCC(c3ccnc4ccc(F)cc34)CC2)C1 (single isomer, unassigned) [Example 43, N-([1,1′-biphenyl]-4-yl)-7-(6-fluoroquinolin-4-yl)spiro[3.5]nonane-2-carboxamide] |
|  | > 10 | O=C(Nc1cccc(-c2ccccc2)c1)C1CC2(CCC(c3ccnc4ccc(F)cc34)CC2)C1 (single isomer, unassigned) [Example 44, N-([1,1′-biphenyl]-3-yl)-7-(6-fluoroquinolin-4-yl)spiro[3.5]nonane-2-carboxamide] |
|  | > 10 | O=C(Nc1ccc(C(F)(F)F)c(Cl)c1)C1CC2(CCC(c3ccnc4ccc(F)cc34)CC2)C1 (single isomer, unassigned) [Example 45, N-(3-chloro-4-(trifluoromethyl)phenyl)-7-(6-fluoroquinoline-4-yl)spiro[3.5]nonane-2-carboxamide] |
|  | 2.74 | O=C(Nc1ccccc1F)C1CC2(CCC(c3ccnc4ccc(F)cc34)CC2)C1 (single isomer, unassigned) [Example 46, N-(2-fluorophenyl)-7-(6-fluoroquinoline-4-yl)spiro[3.5]nonane-2-carboxamide] |
|  | > 10 | O=C(Nc1ccccc1Br)C1CC2(CCC(c3ccnc4ccc(F)cc34)CC2)C1 (single isomer, unassigned) [Example 47, N-(2-bromophenyl)-7-(6-fluoroquinoline-4-yl)spiro[3.5]nonane-2-carboxamide] |
|  | > 10 | O=C(Nc1ccncc1)C1CC2(CCC(c3ccnc4ccc(F)cc34)CC2)C1 (single isomer, unassigned) [Example 48] |
|  | 1.32 | N#Cc1ccc(NC(=O)C2CC3(CCC(c4ccnc5ccc(F)cc45)CC3)C2)cc1 (single isomer, unassigned) [Example 49, N-(4-cyanophenyl)-7-(6-fluoroquinolin-4-yl)spiro[3.5]nonane-2-carboxamide] |
|  | > 10 | O=C(Nc1cccc(C(F)(F)F)c1)C1CC2(CCC(c3ccnc4ccc(F)cc34)CC2)C1 [Example 39, (2S,4s,7S)-7-(6-fluoroquinoline-4-yl)-N-(3-(trifluoromethyl)phenyl)spiro[3.5]nonane-2-carboxamide] |
